Experimental data published in ChEMBL document CHEMBL1137045, “Quinazolinone-based fungal efflux pump inhibitors. Part 1: Discovery of an (N-methylpiperazine)-containing derivative with activity in clinically relevant Candida spp” (Bioorg Med Chem Lett, 2004).
≈ marks a conversion by molar mass, not a printed value.

What was measured:
Candida albicans [1] = experiment: In vitro concentration to inhibit Candida albicans CDR2 transporter gene over-expressed in Saccharomyces cerevisiae strain YEM171; format: functional, organism-based
Nakaseomyces glabratus [2] = experiment: In vitro concentration to inhibit Candida glabrata CgCDR1 transporter gene over-expressed in Saccharomyces cerevisiae strain Y170; format: functional, organism-based
Candida albicans [3] = experiment: In vitro minimum potentiation concentration required to achieve an 8-fold reduction in fluconazole MIC against Candida albicans strain YEM15 (overexpressing both CDR1 and CDR2); format: functional
Candida albicans [4] = experiment: In vitro concentration to inhibit Candida albicans CDR1 transporter gene over-expressed in Saccharomyces cerevisiae strain YEM172; format: functional, organism-based
Nakaseomyces glabratus [5] = experiment: In vitro minimum potentiation concentration required to achieve an 8-fold reduction in fluconazole MIC against Candida glabrata strain YEM19 (overexpressing both […]); format: functional
Nakaseomyces glabratus [6] = experiment: In vitro concentration to inhibit Candida glabrata CgCDR2 transporter gene over-expressed in Saccharomyces cerevisiae strain Y218; format: functional, organism-based
Saccharomyces cerevisiae [7] = experiment: In vitro concentration required to inhibit 80% growth of Saccharomyces cerevisiae strain YEM139 (PDR5 deleted) after 48 h; format: functional
Saccharomyces cerevisiae [8] = experiment: In vitro concentration required to inhibit 80% growth of Saccharomyces cerevisiae strain YEM171 (CDR2 over-expressed) after 48 h; format: functional
Saccharomyces cerevisiae [9] = experiment: In vitro concentration required to inhibit 80% growth of Saccharomyces cerevisiae strain Y218 (CgCDR2 over-expressed) after 48 h; format: functional
Saccharomyces cerevisiae [10] = experiment: In vitro concentration required to inhibit 80% growth of Saccharomyces cerevisiae strain Y170 (CgCDR1 over-expressed) after 48 h; format: functional
Saccharomyces cerevisiae [11] = experiment: In vitro concentration required to inhibit 80% growth of Saccharomyces cerevisiae strain YEM172 (CDR1 over-expressed) after 48 h; format: functional

SMILES	IC50 (Candida albicans [1]) [mg/L]	IC50 (Nakaseomyces glabratus [2]) [mg/L]	MPC8 (Candida albicans [3]) [µg/mL]	IC50 (Candida albicans [4]) [mg/L]	MPC8 (Nakaseomyces glabratus [5]) [µg/mL]	IC50 (Nakaseomyces glabratus [6]) [mg/L]	MIC (Saccharomyces cerevisiae [7]) [mg/L]	MIC (Saccharomyces cerevisiae [8]) [mg/L]	MIC (Saccharomyces cerevisiae [9]) [mg/L]	MIC (Saccharomyces cerevisiae [10]) [mg/L]	MIC (Saccharomyces cerevisiae [11]) [mg/L]
CCOC(=O)CCn1c(C(C)N(C(=O)Nc2cccc(Cl)c2)c2ccc(OC)cc2OC)nc2ccccc2c1=O (configuration not stated)	> 32	> 32	1	0.5 (≈ 0.863 µM)	>32	> 32	–	–	–	–	–
OC(Cn1cncn1)(Cn1cncn1)c1ccc(F)cc1F [FLUCONAZOLE]	–	–	–	–	–	–	0.5 (≈ 1.63 µM)	8 (≈ 26.1 µM)	2 (≈ 6.53 µM)	128 (≈ 418 µM)	128 (≈ 418 µM)
COc1ccc(N(C(=O)Nc2cccc(Cl)c2)C(C)c2nc3ccccc3c(=O)n2N2CCN(C)CC2)c(OC)c1 (configuration not stated)	> 16	8 (≈ 13.9 µM)	1	4 (≈ 6.93 µM)	4	> 16	–	–	–	–	–
COc1ccc(N(C(=O)Nc2cccc(Cl)c2)[C@H](C)c2nc3ccccc3c(=O)n2N2CCN(C)CC2)c(OC)c1	> 32	> 32	>32	> 32	>32	> 32	–	–	–	–	–
COc1ccc(N(C(=O)Nc2cccc(Cl)c2)C(C)c2nc3ccccc3c(=O)n2Cc2ccccc2)c(OC)c1 (configuration not stated)	> 32	> 32	0.5	0.12 (≈ 0.211 µM)	>32	> 32	–	–	–	–	–
COc1ccc(N(Cc2nc3ccccc3c(=O)n2N2CCN(C)CC2)C(=O)Nc2cccc(Cl)c2)c(OC)c1	> 32	> 32	16	32 (≈ 56.8 µM)	16	32 (≈ 56.8 µM)	–	–	–	–	–
COc1ccc(N(C(=O)Nc2cccc(Cl)c2)[C@@H](C)c2nc3ccccc3c(=O)n2N2CCN(C)CC2)c(OC)c1	> 32	4 (≈ 6.93 µM)	1	2 (≈ 3.47 µM)	1	> 32	–	–	–	–	–
COc1ccc(N(C(=O)Nc2cccc(Cl)c2)C(C)(C)c2nc3ccccc3c(=O)n2N2CCN(C)CC2)c(OC)c1	> 32	> 32	>32	> 32	>32	> 32	–	–	–	–	–
